This passage reports IC50 results from ChEMBL document CHEMBL4680235, “Structure-based discovery of novel 4-(2-fluorophenoxy)quinoline derivatives as c-Met inhibitors using isocyanide-involved multicomponent reactions” (Eur J Med Chem, 2020).

Assay [1] has as its system MKN-45. In words: Antiproliferative activity against human MKN-45 cells assessed as reduction in cell viability measured after 72 hrs by MTT assay. The settings on record: MKN-45, 72 h. (Tetrazolium assays rely on reduction of a dye to a coloured formazan, in cell work by metabolically active cells.)
Assay [2] relates to NCI-H460. In words: Antiproliferative activity against human NCI-H460 cells assessed as reduction in cell viability measured after 72 hrs by MTT assay. The settings on record: NCI-H460, 72 h.
Assay [3] concerns MDA-MB-231. In words: Antiproliferative activity against human MDA-MB-231 cells assessed as reduction in cell viability measured after 72 hrs by MTT assay. The settings on record: MDA-MB-231, 72 h.
The subject of assay [4] is HT-29. The experiment in a line: Antiproliferative activity against human HT-29 cells assessed as reduction in cell viability measured after 72 hrs by MTT assay. The settings on record: HT-29, 72 h.
Assay [5] has as its target Hepatocyte growth factor receptor (Homo sapiens, UniProt P08581). The experiment in a line: Inhibition of c-MET (unknown origin) using poly (Glu, Tyr) 4:1 as substrate measured after 30 mins by HTRF assay. (In general: In TR-FRET formats the signal depends on donor and acceptor labels being close together.)

As a reminder, the IC50 is the concentration needed to halve the response being measured.

Each structure is given as a SMILES string.

Sequence of Hepatocyte growth factor receptor (P08581 whole entry): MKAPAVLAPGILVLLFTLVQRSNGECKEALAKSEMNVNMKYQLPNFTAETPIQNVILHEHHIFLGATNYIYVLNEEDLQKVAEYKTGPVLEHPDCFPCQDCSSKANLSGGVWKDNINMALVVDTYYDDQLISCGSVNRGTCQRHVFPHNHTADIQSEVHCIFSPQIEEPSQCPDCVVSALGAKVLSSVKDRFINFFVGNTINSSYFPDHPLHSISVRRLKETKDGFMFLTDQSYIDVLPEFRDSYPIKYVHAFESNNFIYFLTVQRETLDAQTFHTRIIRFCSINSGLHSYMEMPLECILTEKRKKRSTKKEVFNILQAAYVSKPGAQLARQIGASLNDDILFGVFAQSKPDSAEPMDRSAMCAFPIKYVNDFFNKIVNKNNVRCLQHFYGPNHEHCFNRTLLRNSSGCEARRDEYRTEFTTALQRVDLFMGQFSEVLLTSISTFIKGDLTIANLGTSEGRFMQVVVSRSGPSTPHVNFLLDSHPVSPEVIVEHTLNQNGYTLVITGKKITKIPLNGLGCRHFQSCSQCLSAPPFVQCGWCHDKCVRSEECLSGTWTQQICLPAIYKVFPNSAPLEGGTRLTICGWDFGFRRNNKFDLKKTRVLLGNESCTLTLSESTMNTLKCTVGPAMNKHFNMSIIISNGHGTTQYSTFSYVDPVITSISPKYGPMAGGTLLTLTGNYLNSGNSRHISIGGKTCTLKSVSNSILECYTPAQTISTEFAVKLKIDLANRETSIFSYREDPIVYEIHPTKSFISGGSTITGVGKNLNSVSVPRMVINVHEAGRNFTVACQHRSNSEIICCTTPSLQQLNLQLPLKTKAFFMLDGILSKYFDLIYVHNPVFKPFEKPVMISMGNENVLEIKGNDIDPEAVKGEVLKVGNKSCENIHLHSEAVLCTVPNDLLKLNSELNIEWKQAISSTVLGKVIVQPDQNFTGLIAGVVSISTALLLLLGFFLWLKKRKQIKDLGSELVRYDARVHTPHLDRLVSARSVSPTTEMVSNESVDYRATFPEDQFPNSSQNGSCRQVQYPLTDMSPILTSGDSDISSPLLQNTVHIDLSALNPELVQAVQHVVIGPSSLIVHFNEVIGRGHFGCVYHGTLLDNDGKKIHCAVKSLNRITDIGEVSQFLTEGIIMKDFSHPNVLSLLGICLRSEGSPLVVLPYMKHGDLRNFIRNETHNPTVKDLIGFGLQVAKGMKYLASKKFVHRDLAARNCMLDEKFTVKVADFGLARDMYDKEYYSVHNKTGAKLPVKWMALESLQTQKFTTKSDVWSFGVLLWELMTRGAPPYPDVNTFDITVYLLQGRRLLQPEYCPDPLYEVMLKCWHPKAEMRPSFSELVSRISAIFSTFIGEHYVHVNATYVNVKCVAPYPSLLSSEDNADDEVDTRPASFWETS

For the compound `COc1cc2nccc(Oc3ccc(NC(=O)C(OC(=O)c4ccc(C)cc4)C(C)(C)C)cc3F)c2cc1OC` (stereo unspecified), the IC50 in assay [1] turned out to be 1080 nM; in assay [2], 780 nM; in assay [3], 1420 nM; in assay [4], 850 nM.

On to `COc1cc2nccc(Oc3ccc(NC(=O)C(OC(=O)c4ccccc4)C4CCCCC4)cc3F)c2cc1OC` (stereo unspecified), for which the IC50 is 20500 nM in assay [1], 10300 nM in assay [2], 18000 nM in assay [3] and 15600 nM in assay [4].

Take `COc1cc2nccc(Oc3ccc(NC(=O)C(OC(=O)c4ccc(C(C)(C)C)cc4)C(C)(C)C)cc3F)c2cc1OC` (stereo unspecified): the half-inhibitory concentration (IC50) is 3950 nM in assay [1], 2060 nM in assay [2], 4450 nM in assay [3] and 2450 nM in assay [4].

Take `COc1cc2nccc(Oc3ccc(NC(=O)C(N(C(=O)c4ccc(F)cc4)C(C)(C)C)C(C)(C)C)cc3F)c2cc1OC` (stereo unspecified): the 50% inhibitory concentration (IC50) in assay [1] worked out at 1580 nM; in assay [2], 1300 nM; in assay [3], 1700 nM; in assay [4], 1450 nM.

As for `COc1cc2nccc(Oc3ccc(NC(=O)C(OC(=O)c4ccccc4F)C(C)(C)C)cc3F)c2cc1OC` (stereo unspecified), the IC50 in assay [1] is 380 nM; in assay [2], 210 nM; in assay [3], 440 nM; in assay [4] it was 240 nM.

Take `COc1cc2nccc(Oc3ccc(NC(=O)C(N(C(=O)c4ccc(F)cc4)C4CCCCC4)C(C)(C)C)cc3F)c2cc1OC` (stereo unspecified): the IC50 in assay [1] worked out at 6650 nM; in assay [2], 4340 nM; in assay [3] it was 8480 nM; in assay [4] it was 5350 nM.

For `COc1cc2nccc(Oc3ccc(NC(=O)C(OC(=O)c4ccc(Br)cc4)C(C)(C)C)cc3F)c2cc1OC` (stereo unspecified), the IC50 was found to be 750 nM in assay [1], 480 nM in assay [2], 900 nM in assay [3] and 560 nM in assay [4].

As for `COc1cc2nccc(Oc3ccc(NC(=O)C(NC(=O)c4ccc(F)cc4)C(C)(C)C)cc3F)c2cc1OC` (stereo unspecified), the IC50 was determined as 650 nM in assay [1], 380 nM in assay [2], 960 nM in assay [3] and 440 nM in assay [4].

For the compound `COc1cc2nccc(Oc3ccc(NC(=O)C(OC(=O)c4cccs4)C(C)(C)C)cc3F)c2cc1OC` (stereo unspecified), the concentration for half-maximal inhibition (IC50) in assay [1] came out at 1700 nM; in assay [2], 960 nM; in assay [3], 1890 nM; in assay [4] it was 1260 nM.

Take `COc1cc2nccc(Oc3ccc(NC(=O)C(C)OC(=O)c4cccs4)cc3F)c2cc1OC` (stereo unspecified): the IC50 in assay [1] came to 6390 nM; in assay [2] it was 2460 nM; in assay [3] it was 8240 nM; in assay [4] it was 4020 nM.

Regarding `COc1cc2nccc(Oc3ccc(NC(=O)C(OC(=O)c4cccc(Cl)c4)C(C)(C)C)cc3F)c2cc1OC` (stereo unspecified), the concentration for half-maximal inhibition (IC50) in assay [1] was 600 nM; in assay [2], 310 nM; in assay [3] it was 860 nM; in assay [4], 390 nM.

In the case of `CCCCN(C(=O)c1ccc(F)cc1)C(C(=O)Nc1ccc(Oc2ccnc3cc(OC)c(OC)cc23)c(F)c1)C(C)(C)C` (stereo unspecified), the 50% inhibitory concentration (IC50) in assay [1] worked out at 680 nM; in assay [2], 470 nM; in assay [3] it was 860 nM; in assay [4], 520 nM.

`COc1cc2nccc(Oc3ccc(NC(=O)C(C)OC(=O)c4ccc5ccccc5c4)cc3F)c2cc1OC` (stereo unspecified): the 50% inhibitory concentration (IC50) in assay [1] was found to be 15600 nM; in assay [2], 9430 nM; in assay [3], 13300 nM; in assay [4] it was 11600 nM.

Consider `COc1cc2nccc(Oc3ccc(NC(=O)C(OC(=O)c4cccc(F)c4)C(C)(C)C)cc3F)c2cc1OC` (stereo unspecified), for which the IC50 in assay [1] came to 540 nM; in assay [2] it was 260 nM; in assay [3] it was 490 nM; in assay [4] it was 300 nM.

Take `COc1cc2nccc(Oc3ccc(NC(=O)C(C)OC(=O)C4CCCC4)cc3F)c2cc1OC` (stereo unspecified): the 50% inhibitory concentration (IC50) in assay [1] is 28200 nM; in assay [2], 15200 nM; in assay [4] it was 24600 nM.

Turning to `COc1cc2nccc(Oc3ccc(NC(=O)C(OC(=O)c4ccco4)C(C)(C)C)cc3F)c2cc1OC` (stereo unspecified), the IC50 is 2680 nM in assay [2], 3560 nM in assay [3] and 2960 nM in assay [4].

For `CCCC(OC(=O)c1ccccc1)C(=O)Nc1ccc(Oc2ccnc3cc(OC)c(OC)cc23)c(F)c1` (stereo unspecified), the IC50 was determined as 1870 nM in assay [1], 890 nM in assay [2], 2480 nM in assay [3] and 1240 nM in assay [4].

Consider `COc1cc2nccc(Oc3ccc(NC(=O)C(OC(=O)c4ccccc4)c4ccccc4)cc3F)c2cc1OC` (stereo unspecified), for which the results for the half-inhibitory concentration (IC50) in assay [2] and in assay [4] were 22400 nM and 25600 nM, respectively.

For `COc1cc2nccc(Oc3ccc(NC(=O)C(OC(=O)c4ccc(Cl)c(Cl)c4)C(C)(C)C)cc3F)c2cc1OC` (stereo unspecified), the 50% inhibitory concentration (IC50) in assay [1] was determined as 1120 nM; in assay [2], 780 nM; in assay [3], 1560 nM; in assay [4], 900 nM.

Consider `COc1cc2nccc(Oc3ccc(NC(=O)C(OC(=O)c4ccc(C(F)(F)F)cc4)C(C)(C)C)cc3F)c2cc1OC` (stereo unspecified), for which the 50% inhibitory concentration (IC50) was determined as 2870 nM in assay [1], 1840 nM in assay [2], 3520 nM in assay [3] and 2160 nM in assay [4].

For the compound `COc1cc2nccc(Oc3ccc(NC(=O)C(N(C(=O)c4ccc(F)cc4)c4ccc(F)cc4)C(C)(C)C)cc3F)c2cc1OC` (stereo unspecified), the half-maximal inhibitory concentration (IC50) in assay [1] was 12400 nM; in assay [2] it was 8420 nM; in assay [3], 14800 nM; in assay [4], 10200 nM.

Turning to `COc1ccc(C(=O)OC(C(=O)Nc2ccc(Oc3ccnc4cc(OC)c(OC)cc34)c(F)c2)C(C)(C)C)cc1` (stereo unspecified), the IC50 in assay [1] was 1860 nM; in assay [2], 1250 nM; in assay [3] it was 2580 nM; in assay [4], 1540 nM.

As to `COc1cc2nccc(Oc3ccc(NC(=O)C(C)OC(=O)c4ccccc4)cc3F)c2cc1OC` (stereo unspecified), the IC50 amounted to 2390 nM in assay [1], 1290 nM in assay [2], 3210 nM in assay [3] and 1920 nM in assay [4].

In the case of `COc1cc2nccc(Oc3ccc(NC(=O)C(OC(=O)c4ccc5ccccc5c4)C(C)(C)C)cc3F)c2cc1OC` (stereo unspecified), the IC50 stood at 3340 nM in assay [2], 6750 nM in assay [3] and 4380 nM in assay [4].

Turning to `COc1cc2nccc(Oc3ccc(NC(=O)C(OC(=O)c4ccc(Cl)cc4)C(C)(C)C)cc3F)c2cc1OC` (stereo unspecified), the IC50 in assay [1] turned out to be 320 nM; in assay [2], 200 nM; in assay [3], 480 nM; in assay [4], 240 nM.

For the compound `COc1cc2nccc(Oc3ccc(NC(=O)C(OC(=O)c4cc(OC)c(OC)c(OC)c4)C(C)(C)C)cc3F)c2cc1OC` (stereo unspecified), the half-inhibitory concentration (IC50) in assay [1] is 3870 nM; in assay [2], 2700 nM; in assay [3], 4920 nM; in assay [4], 3030 nM.

In the case of `COc1ccc(N(C(=O)c2ccc(F)cc2)C(C(=O)Nc2ccc(Oc3ccnc4cc(OC)c(OC)cc34)c(F)c2)C(C)(C)C)cc1OC` (stereo unspecified), the IC50 in assay [1] came out at 7520 nM; in assay [2], 6420 nM; in assay [3] it was 8870 nM; in assay [4], 6210 nM.

`COc1cc2nccc(Oc3ccc(NC(=O)[C@@H](OC(=O)c4ccc(F)cc4)C(C)(C)C)cc3F)c2cc1OC` showed an IC50 in assay [5] of 2.49 nM.

With `COc1cc2nccc(Oc3ccc(NC(=O)C(N(C(=O)c4ccc(F)cc4)c4ccccc4)C(C)(C)C)cc3F)c2cc1OC` (stereo unspecified), the concentration for half-maximal inhibition (IC50) worked out at 11500 nM in assay [1], 7560 nM in assay [2], 14000 nM in assay [3] and 9270 nM in assay [4].

In the case of `COc1cc2nccc(Oc3ccc(NC(=O)[C@H](OC(=O)c4ccc(F)cc4)C(C)(C)C)cc3F)c2cc1OC`, half-maximal inhibition in assay [5] (IC50) was put at 2.56 nM.

As to `COc1cc2nccc(Oc3ccc(NC(=O)C(OC(=O)c4ccccc4Cl)C(C)(C)C)cc3F)c2cc1OC` (stereo unspecified), the IC50 in assay [1] was found to be 460 nM; in assay [2], 220 nM; in assay [3] it was 760 nM; in assay [4], 290 nM.

In the case of `COc1cc2nccc(Oc3ccc(NC(=O)C(OC(=O)c4ccccc4)C(C)(C)C)cc3F)c2cc1OC` (stereo unspecified), the 50% inhibitory concentration (IC50) in assay [1] amounted to 560 nM; in assay [2], 400 nM; in assay [3], 650 nM; in assay [4], 450 nM.

Consider `COc1cc2nccc(Oc3ccc(NC(=O)C(OC(=O)C4CCCC4)C(C)(C)C)cc3F)c2cc1OC` (stereo unspecified), for which the half-maximal inhibitory concentration (IC50) in assay [1] was 11500 nM; in assay [2], 11600 nM; in assay [3], 14000 nM; in assay [4], 9270 nM.
